In BindingDB's records for doi:10.1016/s0014-2999(02)02124-6 (Schering-Plough Research Institute, 2002):
pKi: −log10 of the molar value.

How the values were obtained:
Substance-P receptor = Substance-P receptor (Homo sapiens, UniProt P25103)
Substance-K receptor = target: T1, Substance-K receptor (Homo sapiens, UniProt P21452)
T1 sequence (P21452 whole entry): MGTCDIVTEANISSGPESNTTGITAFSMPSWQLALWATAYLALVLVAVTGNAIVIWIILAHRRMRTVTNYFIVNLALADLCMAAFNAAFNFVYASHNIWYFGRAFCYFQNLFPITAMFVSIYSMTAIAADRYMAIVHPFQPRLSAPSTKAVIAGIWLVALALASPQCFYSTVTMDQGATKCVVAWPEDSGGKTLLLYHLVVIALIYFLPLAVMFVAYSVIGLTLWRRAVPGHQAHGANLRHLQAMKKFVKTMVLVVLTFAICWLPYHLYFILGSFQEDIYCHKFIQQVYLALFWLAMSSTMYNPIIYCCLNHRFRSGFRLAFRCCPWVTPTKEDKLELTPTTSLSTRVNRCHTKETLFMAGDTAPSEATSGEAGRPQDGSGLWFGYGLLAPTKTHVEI

Neuromedin-K receptor = target: T2, Neuromedin-K receptor (Homo sapiens, UniProt P29371)
T2 sequence (P29371 whole entry): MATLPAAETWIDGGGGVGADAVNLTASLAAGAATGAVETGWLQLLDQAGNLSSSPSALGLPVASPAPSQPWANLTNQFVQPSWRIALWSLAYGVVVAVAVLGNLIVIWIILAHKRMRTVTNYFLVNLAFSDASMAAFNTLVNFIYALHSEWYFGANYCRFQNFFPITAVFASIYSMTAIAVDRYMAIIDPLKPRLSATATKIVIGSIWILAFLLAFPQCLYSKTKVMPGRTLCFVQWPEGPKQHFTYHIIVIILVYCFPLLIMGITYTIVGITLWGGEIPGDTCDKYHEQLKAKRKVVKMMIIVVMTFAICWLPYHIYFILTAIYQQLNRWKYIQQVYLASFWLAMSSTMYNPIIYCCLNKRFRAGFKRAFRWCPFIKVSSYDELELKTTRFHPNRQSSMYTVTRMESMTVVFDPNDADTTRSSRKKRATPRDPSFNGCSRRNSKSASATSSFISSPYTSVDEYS

Substance-P receptor, sequence (P25103 whole entry): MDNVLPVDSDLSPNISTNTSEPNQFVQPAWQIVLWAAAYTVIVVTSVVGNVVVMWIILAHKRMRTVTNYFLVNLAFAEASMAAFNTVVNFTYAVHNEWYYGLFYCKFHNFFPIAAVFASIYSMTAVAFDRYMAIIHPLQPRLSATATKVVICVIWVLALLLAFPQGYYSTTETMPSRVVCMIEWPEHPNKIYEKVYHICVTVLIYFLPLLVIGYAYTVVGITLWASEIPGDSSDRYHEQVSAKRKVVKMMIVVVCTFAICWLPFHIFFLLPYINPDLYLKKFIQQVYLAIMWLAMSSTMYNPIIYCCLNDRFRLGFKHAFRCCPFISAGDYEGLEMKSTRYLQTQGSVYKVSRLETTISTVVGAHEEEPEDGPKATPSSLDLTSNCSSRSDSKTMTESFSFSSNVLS

SMILES	pKi (Substance-P receptor)	pKi (Substance-K receptor)	pKi (Neuromedin-K receptor)
CNC(=O)CC1CCCN(C2CCN(CC[C@@H](/C(CN(C)C(=O)c3cc(Cl)cc(Cl)c3)=N/OC)c3ccc(Cl)c(Cl)c3)CC2)C1=O (stereo partly drawn)	8.89	9.40	9.52
CC(=O)NC1(c2ccccc2)CCN(CCC(CN(C)C(=O)c2ccccc2)c2ccc(Cl)c(Cl)c2)CC1 (stereo not drawn) [SR 48968]	6.56	9.40	5.89
COc1ccccc1CN[C@H]1CCCN[C@H]1c1ccccc1 [(+/-)(2-Methoxy-benzyl)-(2-phenyl-piperidin-3-yl)-amine]	–	< 5.00	< 5.00
